One block for each compound: values may come before it. Residues, ends and D or L forms follow the SMILES beside them. *: point of attachment. AMC = Cc1cc(=O)oc2cc(N*)ccc12; Cbz = O=C(OCc1ccccc1)*; Bz = O=C(c1ccccc1)*
Legend:
Assay type in all cases: biochemical
thrombin [1] = target: T1, thrombin (Homo sapiens, UniProt P00734); assay: Km of chromogenic thrombin substrates, obtained in buffer; details: obtained in buffer and not in plasma
From the text: (NB: The Km values have been obtained in buffer and not in plasma but any value of Km between 0.5 and 2 times the present one would have allowed similar conclusions as to the suitability in thrombingenration experiments)

thrombin [2] = target: T1, thrombin; assay: Diagnostic plot (dOD/dt against OD) of chromogenic substrates at fixed thrombin activity, to judge use in thrombin generation measurement
Protocol: A suitable chromogenic substrate, i.e. a substrate from which a chromogenic group is split when acted upon by the enzyme to be measured (thrombin, plasmin etc), is added to the reaction mixture. Unless otherwise indicated, for thrombin generation, this mixture consists of four parts of defibrinated plasma, one part of trigger solution and one part of start solution. The reactions can be carried out in a spectrophotometer cuvette, a 96 well plate to be read in a photometric well-plate reader or in a laboratory automaton as e.g. the Cobas Bio and Cobas Fara centrifugal analysers (F. Hoffmann-La Roche, Basel, Switzerland). In short in any device capable of measuring the optical density at 405 nm at 30 s intervals during 10 to 30 min.
Typically 80 μL of defibrinated plasma with 20 μL of rTF without Ca2+ are incubated at 37° C., during a time sufficient for temperature equilibration. Thrombin generation is started by adding 20 μL of a pre-warmed start solution containing 100 mM CaCl2 and 3 mM substrate. After the start of the reaction the optical density at 405 nm is recorded at intervals of maximally 30 s for the time required (≧15 min). Depending upon the measuring device a multiple of the volumes can be used.
This amount is determined by the maximal enzyme potential (η) that to be expected in the experiments. […] In the experiment to obtain the diagnostic plot the enzyme concentration (E) is constant and known. So the enzyme potential (η) is known and can be rendered In the diagnostic plot (curved thin lines in FIG. 8).
In this table η indicates the enzyme potential that is to be expected in the thrombingeneration experiment and limit indicates the limit of enzyme potential that can be measured with the indicated substrate at the indicated concentration.
In FIG. 8 it is seen that straight lines fit through the data over the whole range of ODs measured for three of the four substrates tested. For one (S2238) the straight line fits only up to mOD˜650.

thrombin [3] = target: T1, thrombin; assay: Diagnostic plot of fluorogenic substrates measured in bulk fluid, to judge use in thrombin generation measurement; set-up: from tissue; host or cells: blood plasma of healthy human donors; details: 1 mM substrate, judged from the diagnostic plot
Protocol: The development of fluorescence intensity from aminomethylcoumarine (AMC) is typically measured in a 96-well plate fluorometer (Ascent reader, Thermolabsystems OY, Helsinki Finland) equipped with a 390/460 filter set (excitation/emission) and a dispenser. Immulon 2HB, round-bottom 96-well plates (Dynex) are used. Minimally four readings are done per minute and experiments are carried out in quadruplicate unless otherwise indicated.
To each well, 80 μl of plasma is added. Wells in which TG is measured receive 20 μl of buffer, containing the trigger but no Ca^2+.
Wells in which constant thrombin-like activity is to be measured receive 20 μl of the α2M-thrombin solution at the required concentration as indicated. For PPP, the trigger is 30 pM of recombinant tissue factor (TF) and 24 μM phosphatidyl-serine/phosphatidyl-choline/phosphatidyl-ethanolamine vesicles in Hepes-buffered saline. For PRP the trigger is 20 μl of 3 pM of rTF without added PL.
The plate is placed in the fluorometer and allowed to warm to 37° C. (minimally 15 min). The dispenser of the fluorometer is flushed with warm 100 mM CaCl2 solution, emptied, and then flushed with a prewarmed (37° C.) solution of the substrate in Hepes buffer with 60 g/L bovine serum albumin (FluCa). At the start of the experiment, the instrument dispenses 20 μl of FluCa to all the wells to be measured, registers this as zero time, shakes them for 10 s and starts reading.
A similar approach as that of example 4 can be applied to fluorogenic substrates. The substrates, previously described in ref [35] were, from left to right are BZ-Phe-Val-Arg-AMC, Z-Gly-Pro-Arg-AMC and Z-Pro-Arg-AMC, all tested at a concentration of 1 mM in the setup described under methods.
The scaling factor necessary to convert the arbitrary dF/dt values into nM thrombin is derived from the measurement of the amidolytic activity on a thrombin substrate of the material remaining after thrombin generation is over, as in example 3.

[4] = S 50 μM, E 250 nM (MSC), 300 nM (SQ68)
[5] = S 100 μM, E 0.4 nM (S2238), 250 nM (MSC), 300 nM (SQ68)
[6] = S 150 μM, E 250 nM (MSC), 300 nM (SQ68)

Km (thrombin [1]): 882 µM
η (enzyme potential to be expected in the thrombin generation experiment) (thrombin [2]; S 50 μM): 1.06 µM·min
limit (limit of enzyme potential that can be measured with the substrate at the indicated concentration) (thrombin [2]; [4]): >15 nM·min
η (enzyme potential to be expected in the thrombin generation experiment) (thrombin [2]; S 100 μM): 1.11 µM·min
limit (limit of enzyme potential that can be measured with the substrate at the indicated concentration) (thrombin [2]; [5]): >15 nM·min
η (enzyme potential to be expected in the thrombin generation experiment) (thrombin [2]; S 150 μM): 1.17 µM·min
limit (limit of enzyme potential that can be measured with the substrate at the indicated concentration) (thrombin [2]; [6]): >15 nM·min
Compound: CC(C)C(NC(=O)OCCS(C)(=O)=O)C(=O)NC(CCCN=C(N)N)C(=O)Nc1ccc([N+](=O)[O-])cc1 (stereo not drawn) [MSC, Msc-Val-Arg-pNA]

Compound: COC(=O)CC(=O)NC(C)(C)C(=O)NC(CCCNC(=N)N)C(=O)Nc1ccc([N+](=O)[O-])cc1.Cl (stereo not drawn) [SQ68, Malonyl-α-aminoisobutyryl-arginine para-nitroanilide methyl ester-HCl]
Km (thrombin [1]): 830 µM
η (enzyme potential to be expected in the thrombin generation experiment) (thrombin [2]; S 50 μM): 1.06 µM·min
limit (limit of enzyme potential that can be measured with the substrate at the indicated concentration) (thrombin [2]; [4]): >30 nM·min
η (enzyme potential to be expected in the thrombin generation experiment) (thrombin [2]; S 100 μM): 1.12 µM·min
limit (limit of enzyme potential that can be measured with the substrate at the indicated concentration) (thrombin [2]; [5]): >30 nM·min
η (enzyme potential to be expected in the thrombin generation experiment) (thrombin [2]; S 150 μM): 1.18 µM·min
limit (limit of enzyme potential that can be measured with the substrate at the indicated concentration) (thrombin [2]; [6]): >30 nM·min

Compound: Cc1cc(=O)oc2cc(NC(=O)C(CCCN=C(N)N)NC(=O)C3CCCN3C(=O)OCc3ccccc3)ccc12 (stereo not drawn) [Z-Pro-Arg-AMC] (Cbz-Pro-Arg-{AMC}; configuration not given here)
suitability for the measurement of thrombin generation (fluorogenic substrates) (thrombin [3]): can be used for the measurement of thrombin generation

Km (thrombin [1]): 10 µM
OD up to which the straight line fits the diagnostic plot (thrombin [2]; FIG. 8): ~650 mOD
η (enzyme potential to be expected in the thrombin generation experiment) (thrombin [2]; S 100 μM): 11 µM·min
limit (limit of enzyme potential that can be measured with the substrate at the indicated concentration) (thrombin [2]; [5]): 0.014 nM·min
enzyme potential read from the plot at the OD where the straight line stops fitting (thrombin [2]; at mOD ~650): ~12.5 nM·min
ETP to be measured in the presence of this substrate (thrombin [2]; due to tight binding and inhibition of natural antithrombins): 11000 nM·min
Compound: NC(N)=NCCC[C@H](NC(=O)[C@@H]1CCCCN1C(=O)[C@H](N)Cc1ccccc1)C(=O)Nc1ccc([N+](=O)[O-])cc1 [S2238, HD-Phe-Pip-Arg-pNA]
suitability for the measurement of thrombin generation (chromogenic substrates) (thrombin [2]; judged from the diagnostic plot): unsuitable for the measurement of thrombin generation

Compound: Cc1cc(=O)oc2cc(NC(=O)[C@H](CCCN=C(N)N)NC(=O)[C@@H](NC(=O)[C@H](Cc3ccccc3)NC(=O)c3ccccc3)C(C)C)ccc12 [BZ-Phe-Val-Arg-AMC] (Bz-Phe-Val-Arg-{AMC})
suitability for the measurement of thrombin generation (fluorogenic substrates) (thrombin [3]): can be used for the measurement of thrombin generation

Compound: Cc1cc(=O)oc2cc(NC(=O)[C@H](CCCN=C(N)N)NC(=O)[C@@H]3CCCN3C(=O)CNC(=O)OCc3ccccc3)ccc12 [Z-Gly-Pro-Arg-AMC] (Cbz-Gly-Pro-Arg-{AMC})
suitability for the measurement of thrombin generation (fluorogenic substrates) (thrombin [3]): turnover number that is so high as to have the substrate consumed before thrombin generation is over

Km (thrombin [1]): 866 µM
η (enzyme potential to be expected in the thrombin generation experiment) (thrombin [2]; S 500 μM): 1.58 µM·min
limit (limit of enzyme potential that can be measured with the substrate at the indicated concentration) (thrombin [2]; S 500 μM, E 50 nM): >2 nM·min
Compound: DEMZ-Gly-Arg-pNA

Reference: patent publication US8551722B2, “Time-course measurement of enzymatic activity corrected for impacts of disturbances relating to the reaction of the enzyme with a substrate” (Synapse B.V., priority 2008, dated 2013)
